Test results published in publication PMC7838189, “Natural podophyllotoxin analog 4DPG attenuates EMT and colorectal cancer progression via activation of checkpoint kinase 2” (Cell Death Discovery, 2021).

Legend:
SW-620/5-FU-R cells = test: Western blotting of Chk2 and EMT markers after 4DPG; type: cell-based; settings: 48 h
Text: (§1) 4DPG, a podophyllotoxin class of natural product anticancer compound (Supplementary Fig. S2A) has been recently described by our research group for its potent antitumor and anti-metastatic properties against aggressive cancers[31],[32]. Further, 4DPG augments phosphorylation and activation of Chk2 (Thr68) leading to suppression of EMT and invasiveness of p53-defective cancer cells. To investigate the effect of 4DPG on phosphorylation and expression levels of Chk2 in HCT-116/5-FU-R, SW-620/5-FU-R, and HT-29/5-FU-R cells, we treated these cells for 48 h with increasing concentrations of the compound, and whole-cell lysates were subjected to western blotting analysis. […] To determine the effect of 4DPG on the invasion abilities of these 5-FU-R cells, we performed in situ fluorescent gelatin degradation assay following our pre-standardized protocol[31],[37]. In physiological conditions, this assay mimics the extracellular matrix degradation by aggressive tumor cells undergoing invasion–metastasis process.
(§2) Fig. 2 4DPG activates Chk2 and attenuates EMT in 5-FU-R CRC cells. A Western blotting analysis results portraying protein expression of p-Chk2 (Thr68) and Chk2 in HCT-116/5-FU-R and SW-620/5-FU-R cells in response to increasing concentrations of 4DPG, treated for 48 h. β-Actin expression was considered as endogenous loading control. B Densitometry analysis showing relative protein expression of western blot bands presented above. n = 3, error bars: mean ± SD; ***P < 0.001. C Western blots depicting protein expression of EMT markers in HCT-116/5-FU-R and SW-620/5-FU-R cells in response to increasing concentrations of 4DPG, treated for 48 h. β-Actin expression was considered as endogenous loading control. […] E Immunocytochemistry results displaying the protein expression levels of Vimentin in HCT-116/5-FU-R and SW-620/5-FU-R cells, treated with vehicle and/or 4DPG (300 nM) for 48 h. Scale bars: 50 µm. F In situ fluorescent gelatin degradation assay results showing the invadopodia/footprints of invaded SW-620/5-FU-R cells treated with vehicle and/or 4DPG at the indicated concentration for 48 h. Blue stains over the green background display DAPI staining of nuclei of cells. G Quantification of the area of degradation through Image J software. n = 3, error bars, mean ± SD; ***P < 0.001.
(§3) We adhered to the previously published protocol for western blotting. To sum up, cells were exposed to the respective treatments (mentioned in figure legends). Post-treatment, cells were lysed with cell lysis buffer, and cell lysates were collected after centrifugation. Bradford assay was performed to quantify the protein concentration. Equal amount of protein was taken from each sample to carry out the western blot analysis. SDS-PAGE was employed to separate the proteins that were later transferred onto PVDF membranes (Millipore, Billerica, MA). Next, the membranes were blocked with 5% skim milk and subsequently incubated with the specific primary antibodies (1:1000 dilution), either for 3 h at room temperature or overnight at 4 °C. Later, the blots were washed thoroughly with TBST and probed with the respective secondary antibodies (1:2000 dilution) coupled with horseradish peroxidase for 1 h. Following thorough washing, the membranes were visualized using enhanced chemiluminescence reagent (Millipore) and captured onto Biomax light film (The Eastman Kodak Co., Rochester, NY).

HCT-116/5-FU-R cells = test: as above; type: cell-based; settings: 48 h
Text: as §1, §2, §3

HT-29/5-FU-R cells = test: Western blotting of Chk2 after 4DPG; type: cell-based; settings: 48 h, vs vehicle
Text: as §1
We adhered to the previously published protocol for western blotting. To sum up, cells were exposed to the respective treatments (mentioned in figure legends). Post-treatment, cells were lysed with cell lysis buffer, and cell lysates were collected after centrifugation. Bradford assay was performed to quantify the protein concentration. […]

[1] = test system: tumor tissues of orthotopic rat colorectal carcinoma; test: Immunohistochemical analysis of tumor tissues; type: in vivo, Wistar rats; settings: 25 mg/kg, vs saline-treated group
Procedure: The procedure was performed following our pre-standardized protocol with minor modifications. Paraffin-embedded tissue sections were prepared from the tumors of saline, 5-FU, and 4DPG-treated groups of animals. Primary antibodies used: p-Chk2 (T68), Chk2, p53, p-Vimentin (S38) and Vimentin at 1:150 dilution for overnight at 4 °C.

[2] = increasing concentrations, immunoblot

COc1cc([C@@H]2c3cc4c(cc3C[C@H]3COC(=O)[C@@H]32)OCO4)cc(OC)c1O[C@@H]1O[C@H](CO)[C@@H](O)[C@H](O)[C@H]1O [4DPG, 4′-demethyl-deoxypodophyllotoxin glucoside]
increase in p-Chk2 (Thr68) level (SW-620/5-FU-R cells; 300 nM (sub-toxic), vs vehicle): 11.2 fold
expression of Chk2 (total) (SW-620/5-FU-R cells; vs vehicle): did not alter significantly
amplification of E-cadherin (SW-620/5-FU-R cells; increasing concentrations): ≤ 10.2 fold
amplification of TIMP-1 (SW-620/5-FU-R cells; increasing concentrations): ≤ 7.2 fold
p-Vimentin (ser38), Vimentin, Twist1 and MMP-2 expression (SW-620/5-FU-R cells; [2]): remarkable downregulation
increase in p-Chk2 (Thr68) level (HCT-116/5-FU-R cells; 300 nM (sub-toxic), vs vehicle): 12 fold
expression of Chk2 (total) (HCT-116/5-FU-R cells; vs vehicle): did not alter significantly
amplification of E-cadherin (HCT-116/5-FU-R cells; increasing concentrations): ≤ 12.8 fold
amplification of TIMP-1 (HCT-116/5-FU-R cells; increasing concentrations): up to 12.5 fold
p-Vimentin (ser38), Vimentin, Twist1 and MMP-2 expression (HCT-116/5-FU-R cells; [2]): remarkable downregulation
increase in p-Chk2 (Thr68) level (HT-29/5-FU-R cells; 300 nM (sub-toxic)): 7.9 fold
expression of Chk2 (total) (HT-29/5-FU-R cells): did not alter significantly
p-Vimentin (ser38) and Vimentin expression levels in tumor tissues (immunohistochemistry) [1]: decreased
protein levels of p-Chk2 (Thr68) and p53 in tumor tissues (immunohistochemistry) [1]: marked increase
